Laboratory results published in publication PMC7927616, “Dual‐Targeting Peptide‐Guided Approach for Precision Delivery and Cancer Monitoring by Using a Safe Upconversion Nanoplatform” (Advanced Science, 2021).

Legend:
[1] = In vivo biodistribution by ICP-MS (Gd); parameters: species or system BALB/c nude mice; settings: mouse, iv
p65 in C666 cells = assay: NF‐κB signaling analysis by Western blotting; format: cell-based; settings: Western blot band density
Text: (§1) NF‐ĸB signaling pathway is critical for the survival of EBV‐infected tumor cells. Here we investigated if our nanoprobes could affect this oncogenic pathway. EBV‐positive LCL3 and C666 cells were used as models, EBV‐negative HK1 cells were used as control and Western blot was used to analyze the protein expression of p65, a major transcription factor in the NF‐ĸB family. […] GAPDH and Histone are regarded as internal standards in cytosolic and nuclear fractions, respectively. […] This is consistent with the cellular uptake results. The negligible differences of p65 expression level in HK1 cells were quantified after various treatments in Figure S28 (Supporting Information).
(§2) EBV‐positive C666, LCL3 and EBV‐negative HK1 cell pellets were treated with phosphatase and protease inhibitors at 0–4 °C for 30 min. The total protein concentrations were calculated by protein absorbance. The protein was resolved by sodium dodecyl sulfate‐polyacrylamide gel electrophoresis (SDS‐PAGE) and transferred to cellulose filter membranes. The membranes were blocked with 3% BSA in tris‐buffered saline in 0.1% Tween 20 (TBST) for 1 h with gentle shaking and subsequently incubated with primary antibodies (1:1000) in 3% BSA in TBST at 4 °C for overnight. […] Lastly, the density of bands was determined by image analysis system after washing with TBST buffer three times.

p65 in LCL3 cells = assay: NF‐κB signaling analysis by Western blotting; format: cell-based; settings: Western blot band density
Text: as §1, §2

| Substance | Tumor uptake [1] | Decreased p65 expression, nuclear fraction (p65 in C666 cells) [%] | Decreased p65 expression, nuclear fraction (p65 in LCL3 cells) [%] |
| --- | --- | --- | --- |
| NaGdF4:Yb^3+, Er^3+@NaGdF4 [UCNP] | nearly undetectable | – | – |
| ‐Ahx‐YFMVFGGRrRKGGFWLY [P5] | – | 89 | 86 |
